# Data as given in patent publication US10112932B2, “Benzoxazepin oxazolidinone compounds and methods of use” (Genentech, Inc., priority 2015, dated 2018).
# Where two headings read alike, the source gives them in different places.
# Experiments:
# PI3Kα = PI3Kα (Homo sapiens (Human), UniProt P42336); test: Biochemical inhibition of PI3K alpha (ADP-Glo lipid kinase assay, Example 901); details: geometric mean of minimum three experiments unless footnoted
# Method: Reactions are carried out using the following conditions for each PI3K isoform as in Table 5.
# All reactions are carried out at room temperature. […] The reaction is started by the addition of 2 μl ATP/MgCl2. The kinase reaction buffer contains 50 mM HEPES, 50 mM NaCl 3 mM MgCl2, 0.01% BSA, 1% DMSO, and enzyme and substrate concentrations as indicated in the above table. The reaction is stopped by the addition of 10 μL ADP-Glo reagent. Plates are read in a Perkin Elmer Envision system using luminescence mode. 10 point dose response curves are generated for each test compound. Ki values for each compound are determined using the Morrison Equation.
# [1] = test system: MCF7 cells (PI3Kα mutant E545K); test: Cell viability / antiproliferative assay in MCF7 cells (Example 903); assay type: cell-based; details: Homo sapiens, MCF7, 96 h, read-out: MCF7 antiproliferative EC50
# Method: (§1) Cells were seeded (1,500 per well) in 384-well plates for 16 h. On day 2, nine serial 1:3 compound dilutions were made in DMSO in a 96-well plate. The compounds were then further diluted into growth media using a Rapidplate robot (Zymark Corp.). […] After 4 d, relative numbers of viable cells were measured by luminescence using Cell Titer-Glo (Promega) according to the manufacturer's instructions and read on a Wallac Multilabel Reader (Perkin-Elmer). EC50 values were calculated using Prism 6.0 software (GraphPad).
# [2] = test system: CD69 expression in CD19+ CD27− B cells; test: B-cell a-IgM CD69 expression, human whole blood assay (Example 906); assay type: cell-based
# Method: The expression of CD69 in B-cells resultant from a-IgM treatment is believed to be driven by signaling through PI3Kδ (delta).
# Human whole blood was dispensed into 96-deep well plates at 100 μl per well. Compounds were diluted in DMSO to generate the desired stock concentrations and then further diluted in PBS to the desired working concentration and added in a volume of 5.5 μL per well. Samples were then incubated for 1 hour at 37° C. under 5% CO2 before the addition of 5 μg (10 μl per well) of Goat anti IgM F(ab′)2 (Southern Biotech, AL), and incubated for 18 hours at 37° C. under 5% CO2. All treatments were tested in duplicate.
# In addition, human whole blood from each donor was stained with isotype-matched fluorescent control antibodies. After the addition of the appropriate antibody cocktail the whole blood samples were stained for 30 minutes in the dark and then lysed using BD Pharm Lysis (BD Bioscience, NJ). The resulting samples were then washed with FACS Buffer (Phosphate Buffered Saline (Ca:Mg++ free), 1 mM EDTA, 25 mM HEPES pH 7.0, 1% Fetal Bovine Serum (Heat-Inactivated) and fixed in FACS Buffer supplemented with 0.1% Formaldehyde (Polysciences Inc, PA) and 0.1% Pluronic F-68 (Sigma, MO). Data were acquired using a BD LSR-II (BD Biosciences) with BD FACSDiva software.
# Cells were assessed by flow cytometry for levels of CD19, CD27 and CD69 using BD FACSDiva Software and the CD69 MFI-Mean of the CD19^+ CD27^− lymphocyte population was determined.
# p110α = p110α (Homo sapiens (Human), UniProt P42336, H1047R); test: p110α degradation, Western blot in HCC1954 and HDQ-P1 cells after 24 hour treatment (Example 905); assay type: cell-based; details: HCC1954 (PI3Kα mutant H1047R) vs. HDQ-P1 (PI3Kα wild-type)
# p110α, sequence (P42336 whole entry H1047R): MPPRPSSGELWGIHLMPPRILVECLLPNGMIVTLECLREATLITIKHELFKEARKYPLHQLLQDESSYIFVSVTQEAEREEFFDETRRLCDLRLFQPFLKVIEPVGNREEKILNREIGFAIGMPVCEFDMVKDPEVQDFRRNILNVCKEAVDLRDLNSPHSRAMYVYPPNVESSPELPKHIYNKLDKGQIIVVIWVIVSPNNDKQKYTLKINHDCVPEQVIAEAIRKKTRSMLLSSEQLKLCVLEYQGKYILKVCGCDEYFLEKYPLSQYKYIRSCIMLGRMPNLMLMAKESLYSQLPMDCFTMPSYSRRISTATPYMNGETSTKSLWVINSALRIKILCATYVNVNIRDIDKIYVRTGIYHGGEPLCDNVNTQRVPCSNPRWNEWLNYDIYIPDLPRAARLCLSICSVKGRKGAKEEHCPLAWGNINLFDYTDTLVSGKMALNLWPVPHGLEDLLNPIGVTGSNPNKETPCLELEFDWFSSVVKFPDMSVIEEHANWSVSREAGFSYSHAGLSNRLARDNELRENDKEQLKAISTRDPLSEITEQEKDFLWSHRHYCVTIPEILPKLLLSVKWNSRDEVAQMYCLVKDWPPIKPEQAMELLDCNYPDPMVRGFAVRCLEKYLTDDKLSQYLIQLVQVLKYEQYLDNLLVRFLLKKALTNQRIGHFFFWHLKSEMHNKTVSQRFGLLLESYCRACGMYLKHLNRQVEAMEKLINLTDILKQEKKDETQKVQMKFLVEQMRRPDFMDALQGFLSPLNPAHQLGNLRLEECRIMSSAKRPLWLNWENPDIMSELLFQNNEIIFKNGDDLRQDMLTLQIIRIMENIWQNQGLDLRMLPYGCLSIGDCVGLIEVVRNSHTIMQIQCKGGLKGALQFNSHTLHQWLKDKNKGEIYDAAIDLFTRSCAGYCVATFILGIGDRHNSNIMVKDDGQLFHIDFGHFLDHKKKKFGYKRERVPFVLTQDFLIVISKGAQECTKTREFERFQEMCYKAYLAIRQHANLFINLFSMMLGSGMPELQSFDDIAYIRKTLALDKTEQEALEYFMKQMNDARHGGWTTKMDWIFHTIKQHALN
# p110α, sequence (P27986 whole entry partner): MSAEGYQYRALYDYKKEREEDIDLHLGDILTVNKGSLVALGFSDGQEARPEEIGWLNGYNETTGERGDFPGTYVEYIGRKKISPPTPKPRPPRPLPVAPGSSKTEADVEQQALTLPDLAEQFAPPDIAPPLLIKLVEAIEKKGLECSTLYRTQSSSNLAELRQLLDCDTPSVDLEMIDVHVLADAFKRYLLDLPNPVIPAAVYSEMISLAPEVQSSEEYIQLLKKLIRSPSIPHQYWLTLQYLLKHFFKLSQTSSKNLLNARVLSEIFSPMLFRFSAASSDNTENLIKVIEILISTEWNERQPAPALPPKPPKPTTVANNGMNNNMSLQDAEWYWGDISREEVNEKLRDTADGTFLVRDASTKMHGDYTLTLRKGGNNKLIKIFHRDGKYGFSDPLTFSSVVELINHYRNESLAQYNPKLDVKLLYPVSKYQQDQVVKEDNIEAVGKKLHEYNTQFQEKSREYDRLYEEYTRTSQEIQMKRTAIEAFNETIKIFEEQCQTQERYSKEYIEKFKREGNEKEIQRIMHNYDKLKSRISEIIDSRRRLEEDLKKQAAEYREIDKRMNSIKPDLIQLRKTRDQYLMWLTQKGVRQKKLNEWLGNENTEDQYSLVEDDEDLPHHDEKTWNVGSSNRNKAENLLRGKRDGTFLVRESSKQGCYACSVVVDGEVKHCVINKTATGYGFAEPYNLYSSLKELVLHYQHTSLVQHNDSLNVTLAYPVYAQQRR
# Method: Cell lines were grown under standard tissue culture conditions in RPMI media with 10% fetal bovine serum, 100 U/mL penicillin, and 100 μg/mL streptomycin.
# [3] = Multiple day oral dosing in dogs (exposure, clinical and anatomic pathology); assay type: in vivo, Beagle dogs; details: for concentration at 14 day / Cmax / AUC(0-t): Beagle, plasma; for concentration at 14 day / Cmax / AUC(0-t) / Cmax D14, free / Exposure AUC0-24 hr, D14, free / Exposure multiples (free, AUC) / Exposure multiples (total, AUC) / Exposure multiples to CD69 IC50 (total, Cmin): dog; for concentration at 14 day: oral, read-out: Cmin D14, total; for Cmax / AUC(0-t): po; for Cmax: read-out: Cmax D14, total; for AUC(0-t): read-out: Exposure AUC0-24 hr, D14, total; for Exposure multiples (free, AUC) / Exposure multiples (total, AUC): vs TGI60 from 21-day HCC1954 TGI study; for Exposure multiples to CD69 IC50 (total, Cmin): whole-blood CD69 IC50 = 142 nM
# From the text: The extent and severity of findings is consistent with increased inhibition of PI3Kδ (delta) at exposure multiples over CD69 IC50 for the comparator compounds.
# [4] = Unbound fraction in dog plasma (Fu); assay type: in vitro ADME; details: read-out: Fu dog (unbound fraction in species plasma)
# [5] = Unbound fraction in mouse plasma (Fu); assay type: in vitro ADME; details: read-out: Fu mouse (unbound fraction in species plasma)
# [6] = test system: HDQ-P1 (PI3Kα wild-type), p-PRAS40; test: p-PRAS40 MSD assay in HDQ-P1 cells (Example 907); details: Homo sapiens, HDQ-P1, 24 h, read-out: P-PRAS40 HDQ-P1 MSD EC50
# Method: (§2) The following day, cells are treated with compounds and incubated for 24 hours. […] The HCC1954 cell line expresses mutant PI3Kα (E545K) vs WT in HDQP1.
# (§3) The MSD platform provides a method of measuring the phosphorylated levels of pPRAS40 in a single sample. […] Following cell lysis, PRAS40 in samples is allowed to bind to the capture antibodies.
# (§4) Procedure: • Compounds prepared at concentration of 2 mM in DMSO.
# (§5) Day 1: Cell Plating • 1. Seed 12.500 cells in 45 ul medium for each cell line. Allow cells to settle/attach to plate for 15-20 min at room temperature. • 2. Incubate cells overnight in a 37° C. humidity and CO2 controlled incubator.
# (§6) Day 2: Compound Plate Preparation and Compound Treatment • 1. For the 10× intermediate dilution plate: add 95 ul serum-free media into a standard profile greiner 384 well polypropylene plate. • 2. Use biomek Fx protocol for intermediate compound dilution in media and addition to cells: “SLS Intermed Dil Add 5 ul to Cells Jul. […] The method then transfers 5 ul from the intermediate dilution plate to the appropriate cell plate. • 3. Incubate the treated cells at 37 degrees for 24 hours in a 5% CO2 humidified incubator.
# (§7) Block the MSD assay plate with 50 ul 3% Blocker A/1×MSD Wash Buffer 1-2 hr at room temp. […] Blocking buffer A contains 1×MSD wash buffer. 20 mL 1× Tris Wash buffer and 600 mg Blocker A.
# (§8) Aspirate Media and Lyse the Cells • 1. Lyse the cells in 50 μl lysis buffer. Lyse at room temperature for 10-20 minutes on plate shaker. • 2. While cells are lysing, wash blocked plates 1×MSD wash buffer. • 3. Transfer 42 ul lysates (21+21 μL) to a blocked MSD pPRAS40 assay plate. • 4. Seal MSD plates and incubate at 4° C. with shaking overnight.
# (§9) Day 4: MSD Assay/Detection • 8. Make a solution of 1% Blocker A in 1×MSD wash buffer. (20 mL 1× Tris Wash buffer and 200 mg Blocker A (1% w/v). This solution can be stored at 4° C. for up to one month. • 9. Wash the MSD plates with 1×MSD wash buffer. • 10. Add 10 μl of the diluted SULFO-TAG detection antibody to the plates. Incubate for 1 hr with shaking at room temp.
# (§10) Wash the plates 4× with 1×MSD wash buffer. • 12. Add 35 μl 1× Read buffer with reverse pipetting to avoid bubbles. • 13. Read the plate immediately on the MSD SECTOR instrument.
# [7] = test system: HCC1954 (PI3Kα mutant H1047R), p-PRAS40; test: p-PRAS40 MSD assay in HCC1954 cells (Example 907); details: Homo sapiens, HCC1954, 24 h, read-out: P-PRAS40 HCC1954 MSD EC50
# Method: as §2, §3, §4, §5, §6, §7, §8, §9, §10
# [8] = test system: HCC1954 cells (PI3Kα mutant H1047R); test: Cell viability / antiproliferative assay in HCC1954 cells (Example 903); details: Homo sapiens, HCC1954, 96 h, read-out: HCC1954 antiproliferative EC50
# Method: as §1
# [9] = test system: SW48 (parental) PI3Kα wild-type cells, P-PRAS40; test: Inhibition of P-PRAS40 in SW48 isogenic cells, PI3Kα wild-type parental (Example 902); details: Homo sapiens, SW48, 24 h, read-out: P-PRAS40 SW48 (parental) EC50
# [10] = test system: SW48 (E545K) PI3Kα mutant cells, P-PRAS40; test: Inhibition of P-PRAS40 in SW48 isogenic cells, helical domain mutant E545K (Example 902); details: Homo sapiens, SW48, 24 h, read-out: P-PRAS40 SW48 (E545K) EC50
# [11] = test system: SW48 (H1047R) PI3Kα mutant cells, P-PRAS40; test: Inhibition of P-PRAS40 in SW48 isogenic cells, kinase domain mutant H1047R (Example 902); details: Homo sapiens, SW48, 24 h, read-out: P-PRAS40 SW48 (H1047R) EC50
# PI3Kα, sequence (P42336 whole entry, canonical isoform): as the sequence (P42336 whole entry H1047R) above, with R1047H counted along it
# PI3Kα, sequence (P27986 whole entry partner, canonical isoform): as the sequence (P27986 whole entry partner) above
smiles,measurement,setting,value
"NC(=O)[C@@H](Nc1ccc2c(c1)OCCn1cc(N3C(=O)OC[C@H]3C(F)F)nc1-2)C1CC1 [Compound 103, (S)-2-Cyclopropyl-2-((2-((S)-4-(difluoromethyl)-2-oxooxazolidin-3-yl)-5,6-dihydrobenzo[f]imidazo[1,2-d][1,4]oxazepin-9-yl)amino)acetamide]",Ki,PI3Kα,0.06 nM
same,EC50,[1],30 nM
same,IC50,"[2]; Homo sapiens, whole-blood, uncorrected, read-out: a-IgM stimulated CD69 expression (whole-blood) IC50",142 nM
same,IC50,"[2]; human whole-blood IC50 multiplied by measured human fu, read-out: B-cell a-IgM CD69 expression IC50, plasma-protein-binding corrected",76 nM
same,p110α levels (Western blot),p110α,promote reduction of p110α levels selectively in PI3K mutant
same,concentration at 14 day,[3]; 0.1 mg/kg/day,4.8 nM
same,concentration at 14 day,[3]; 0.3 mg/kg/day,11 nM
same,concentration at 14 day,[3]; 1 mg/kg/day,34 nM
same,Cmax,[3]; 0.1 mg/kg/day,40 nM
same,AUC(0-t),[3]; 0.1 mg/kg/day,0.27 µM·h
same,Cmax,[3]; 0.3 mg/kg/day,130 nM
same,AUC(0-t),[3]; 0.3 mg/kg/day,0.9 µM·h
same,Cmax,[3]; 1 mg/kg/day,310 nM
same,AUC(0-t),[3]; 1 mg/kg/day,2.54 µM·h
same,"Cmax D14, free",[3]; Compound 103 0.1 mg/kg/day QD,20 nM
same,"Exposure AUC0-24 hr, D14, free",[3]; Compound 103 0.1 mg/kg/day QD,0.14 µM·h
same,"Exposure multiples (free, AUC)",[3]; Compound 103 0.1 mg/kg/day QD,4.7 ×
same,"Exposure multiples (total, AUC)",[3]; Compound 103 0.1 mg/kg/day QD,0.2 ×
same,"Exposure multiples to CD69 IC50 (total, Cmin)",[3]; Compound 103 0.1 mg/kg/day QD,0.03×
same,"Cmax D14, free",[3]; Compound 103 0.3 mg/kg/day QD,66 nM
same,"Exposure AUC0-24 hr, D14, free",[3]; Compound 103 0.3 mg/kg/day QD,0.46 µM·h
same,"Exposure multiples (free, AUC)",[3]; Compound 103 0.3 mg/kg/day QD,15 ×
same,"Exposure multiples (total, AUC)",[3]; Compound 103 0.3 mg/kg/day QD,0.8 ×
same,"Exposure multiples to CD69 IC50 (total, Cmin)",[3]; Compound 103 0.3 mg/kg/day QD,0.08×
same,"Cmax D14, free",[3]; Compound 103 1 mg/kg/day QD,160 nM
same,"Exposure AUC0-24 hr, D14, free",[3]; Compound 103 1 mg/kg/day QD,1.29 µM·h
same,"Exposure multiples (free, AUC)",[3]; Compound 103 1 mg/kg/day QD,43 ×
same,"Exposure multiples (total, AUC)",[3]; Compound 103 1 mg/kg/day QD,2.2 ×
same,"Exposure multiples to CD69 IC50 (total, Cmin)",[3]; Compound 103 1 mg/kg/day QD,0.2×
same,Lymphoid depletion (summary),"[3]; multiple-day dosing in Beagle dogs (7-14 days), high exposure multiples",only minor amounts of lymphoid depletion at high exposure multiples
same,Pro-inflammatory signature (clinical pathology or anatomic pathology evaluation),"[3]; multiple-day dosing in Beagle dogs (7-14 days), 101 and 103 at >5-fold free exposure multiples over TGI60",do not promote a pro-inflammatory signature
same,fraction unbound,[4],0.507
same,fraction unbound,[5],0.03
same,EC50,[6],155 nM
same,EC50,[7],28 nM
same,EC50,[8],70 nM
same,EC50,[9],10.1 nM
same,EC50,[10],4.1 nM
same,EC50,[11],3.8 nM
